The values that follow come from patent publication US7135466B2 (Kirin Beer Kabushiki Kaisha, priority 1999, dated 2006).

Each structure is given as a SMILES string.

The target of the first assay is T1, c-kit (Homo sapiens, UniProt P10721).
T1 construct: MO7e (human megakaryocytic leukemia cell line) which had been arrested for 20 hr; endogenous in cells; host or cells: MO7e human megakaryocytic leukemia cell line
T1 sequence (P10721 26-976): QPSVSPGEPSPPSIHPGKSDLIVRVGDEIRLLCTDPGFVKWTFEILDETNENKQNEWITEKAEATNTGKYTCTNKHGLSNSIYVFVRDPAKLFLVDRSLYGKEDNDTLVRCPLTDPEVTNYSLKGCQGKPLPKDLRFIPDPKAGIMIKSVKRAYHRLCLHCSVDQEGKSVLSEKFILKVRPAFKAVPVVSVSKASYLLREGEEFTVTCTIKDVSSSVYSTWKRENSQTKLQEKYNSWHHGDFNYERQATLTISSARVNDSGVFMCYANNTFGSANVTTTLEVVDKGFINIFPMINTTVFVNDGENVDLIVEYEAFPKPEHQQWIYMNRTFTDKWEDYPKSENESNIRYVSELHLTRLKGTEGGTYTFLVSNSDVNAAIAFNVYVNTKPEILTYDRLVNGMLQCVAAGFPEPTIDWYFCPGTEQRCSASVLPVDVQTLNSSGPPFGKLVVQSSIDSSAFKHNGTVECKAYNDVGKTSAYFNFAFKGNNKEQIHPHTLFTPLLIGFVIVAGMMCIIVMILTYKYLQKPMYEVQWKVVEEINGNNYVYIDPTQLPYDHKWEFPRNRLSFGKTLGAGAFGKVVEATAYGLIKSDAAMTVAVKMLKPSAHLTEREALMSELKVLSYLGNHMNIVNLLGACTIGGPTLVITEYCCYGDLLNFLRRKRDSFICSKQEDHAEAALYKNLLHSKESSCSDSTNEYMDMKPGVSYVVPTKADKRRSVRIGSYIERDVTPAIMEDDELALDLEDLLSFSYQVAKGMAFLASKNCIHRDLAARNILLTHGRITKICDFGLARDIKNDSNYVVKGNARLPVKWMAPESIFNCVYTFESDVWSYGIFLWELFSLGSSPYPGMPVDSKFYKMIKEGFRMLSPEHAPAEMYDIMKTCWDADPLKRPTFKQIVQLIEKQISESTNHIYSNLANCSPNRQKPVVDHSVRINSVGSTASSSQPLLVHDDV
Description: Inhibitory activity against c-kit autophosphorylation (MO7e cells, h-SCF). Conditions: MO7e cells, h-SCF stimulation; read-out: c-kit IC50. The format is cell-based. The essentials: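 Growth-arrested (20 hr) MO7e; cpd in DMSO, 1 hr; h-SCF 50 ng/ml, 5 min; lyse. ELISA: anti-pTyr (PY-20) capture, anti-c-kit 1° Ab, HRP anti-rabbit 2° Ab, A450.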
Consider `CCOc1ccc(C(=O)NC(=S)Nc2ccc(Oc3ccnc4cc(OC)c(OC)cc34)c(F)c2)cc1` [Example 990, N-{4-[(6,7-Dimethoxy-4-quinolyl)oxy]-3-fluorophenyl}-N′-(4-ethoxybenzoyl)thiourea], for which the IC50 (as a rule, the concentration needed to halve the response being measured) came to 481 nM.
On the same count and under the same terms, for `CCOc1ccc(C(=O)NC(=S)Nc2ccc(Oc3ccnc4cc(OC)c(OC)cc34)c(Cl)c2)cc1` [Example 992, N-{3-Chloro-4-[(6,7-dimethoxy-4-quinolyl)oxy]phenyl}-N′-(4-ethoxybenzoyl)thiourea] the value was 766 nM; for `COc1cc2nccc(Oc3ccc(NC(=S)NC(=O)c4ccc(F)cc4F)cc3)c2cc1OC` [Example 1006, N-(2,4-Difluorobenzoyl)-N′-{4-[(6,7-dimethoxy-4-quinolyl)oxy]phenyl}thiourea], 181 nM.
The same measure, in the same setting: the value for `COc1cc2nccc(Oc3ccc(NC(=S)NC(=O)c4c(F)cccc4F)cc3)c2cc1OC` [Example 1007, N-(2,6-Difluorobenzoyl)-N′-{4-[(6,7-dimethoxy-4-quinolyl)oxy]phenyl}thiourea] was 616 nM.
In the case of `COc1cc2nccc(Oc3ccc(NC(=S)NC(=O)c4ccc(Cl)cc4Cl)cc3)c2cc1OC` [Example 1008, N-(2,4-Dichlorobenzoyl)-N′-{4-[(6,7-dimethoxy-4-quinolyl)oxy]phenyl}thiourea], the IC50 was 357 nM.
Still for that read-out and setting: the value for `COc1ccc(C(=O)NC(=S)Nc2ccc(Oc3ccnc4cc(OC)c(OC)cc34)cc2)cc1OC` [Example 1010, N-(3,4-Dimethoxybenzoyl)-N′-{4-[(6,7-dimethoxy-4-quinolyl)oxy]phenyl}thiourea] was 78 nM.
On the same count and under the same terms, the value for `COc1cc2nccc(Oc3ccc(NC(=S)NC(=O)c4cc(Cl)cc(Cl)c4)cc3F)c2cc1OC` [Example 1015, N-(3,5-Dichlorobenzoyl)-N′-{4-[(6,7-dimethoxy-4-quinolyl)oxy]-3-fluorophenyl}thiourea] was 195 nM; that for `COc1cc2nccc(Oc3ccc(NC(=S)NC(=O)CCc4ccccc4)c(F)c3)c2cc1OC` [Example 1026, N-{4-[(6,7-Dimethoxy-4-quinolyl)oxy]-2-fluorophenyl}-N′-(3-phenylpropanoyl)thiourea] was 652 nM.

The assay is the same for the next values; noted with them: Mo7e, figure in parentheses in −( ); at 1000 nM.
As to `CCc1ccc(C(=O)NC(=S)Nc2ccc(Oc3ccnc4cc(OC)c(OC)cc34)cc2F)cc1` [Example 993, N-{4-[(6,7-Dimethoxy-4-quinolyl)oxy]-2-fluorophenyl}-N′-(4-ethylbenzoyl)thiourea], the inhibition (usually the change of the read-out against control, counted positive when it falls) at 1 µM was found to be 35%.
Turning to `COc1cc2nccc(Oc3ccc(NC(=S)NC(=O)c4ccc(Cl)cc4Cl)c(F)c3)c2cc1OC` [Example 1011, N-(2,4-Dichlorobenzoyl)-N′-{4-[(6,7-dimethoxy-4-quinolyl)oxy]-2-fluorophenyl}thiourea], the inhibition at 1 µM amounted to 20%.
As to `COc1cc2nccc(Oc3ccc(NC(=S)NC(=O)c4c(Cl)cccc4Cl)c(F)c3)c2cc1OC` [Example 1012, N-(2,6-Dichlorobenzoyl)-N′-{4-[(6,7-dimethoxy-4-quinolyl)oxy]-2-fluorophenyl}thiourea], the inhibition at 1 µM turned out to be 24%.
Consider `COc1cc2nccc(Oc3ccc(NC(=S)NC(=O)c4ccc(F)cc4F)cc3F)c2cc1OC` [Example 1013, N-(2,4-Difluorobenzoyl)-N′-{4-[(6,7-dimethoxy-4-quinolyl)oxy]-3-fluorophenyl}thiourea], for which the inhibition at 1 µM came out at 22%.
The same measure, in the same setting: the value for `COc1cc2nccc(Oc3ccc(NC(=S)NC(=O)c4ccc(Cl)cc4Cl)cc3F)c2cc1OC` [Example 1014, N-(2,4-Dichlorobenzoyl)-N′-{4-[(6,7-dimethoxy-4-quinolyl)oxy]-3-fluorophenyl}thiourea] was 30%; that for `COc1cc2nccc(Oc3ccc(NC(=S)NC(=O)c4c(F)cccc4F)cc3Cl)c2cc1OC` [Example 1020, N-{3-Chloro-4-[(6,7-dimethoxy-4-quinolyl)oxy]phenyl}-N′-(2,6-difluorobenzoyl)thiourea] was 11%.
With `COc1cc2ncnc(Oc3ccc(NC(=S)NC(=O)c4ccc(F)cc4F)cc3)c2cc1OC` [Example 1021, N-(2,4-Difluorobenzoyl)-N′-{4-[(6,7-dimethoxy-4-quinazolinyl)oxy]phenyl}thiourea], the inhibition at 1 µM stood at 38%.
